For orientation: LC50 means the concentration that kills 50% of the test population. A low value points to greater toxicity. In general, MIC refers to the least concentration at which growth counts as inhibited.

Among the data in ChEMBL document CHEMBL1150094, “Cacospongionolide B, a new sesterterpene from the sponge Fasciospongia cavernosa” (J Nat Prod, 1995) are LC50 and MIC values, retold here.

One series deals with Artemia salina. Nature of the series: Toxicity against Artemia salina. It counts as organism-based. As to conditions: in vivo.
A further series has as its system Micrococcus luteus. Nature of the series: Antimicrobial activity against Micrococcus luteus DSM 348. In kind it is functional.
For the next series, the system named is Bacillus subtilis. Nature of the series: Antimicrobial activity against Bacillus subtilis DSM 347. It counts as functional.

≈ marks a conversion by molar mass, not a printed value.

In the series with Artemia salina, `C=C1CCC[C@H]2[C@](C)(CCC3=CCC(C4=CC(=O)OC4O)OC3)[C@H](C)CC[C@]12C` (stereo partly drawn) [CACOSPONGIONOLIDE B] showed an LC50 of 0.25 ppm. In addition, the minimum inhibitory concentration (MIC) in the series with Micrococcus luteus and in the series with Bacillus subtilis was 0.78 µg/mL (≈ 1.95 µM) in each case.
